The subject of one data set is OVCAR-3. Description: Antiproliferative activity against human OVCAR3 cells after 72 hrs by MTS assay. It is filed as functional, cell-based. The settings on record: OVCAR-3, 72 h.
The test system of a further data set is NCI-H226. As to the kind of experiment: Antiproliferative activity against human NCI-H226 cells after 72 hrs by MTS assay. Particulars: NCI-H226, 72 h. It counts as functional, cell-based.
A further data set concerns NCI-N87. As to the kind of experiment: Antiproliferative activity against human NCI-N87 cells after 72 hrs by MTS assay. Particulars: NCI-N87, 72 h. It is filed as functional, cell-based. In general terms: Tetrazolium dyes change colour on reduction, which living cells bring about.
Another data set has as its system HCT-116. Description: Antiproliferative activity against human HCT116 cells after 72 hrs by MTS assay. It is filed as functional, cell-based. Particulars: HCT-116, 72 h.
Another data set deals with HCT-116/VM46. As to the kind of experiment: Antiproliferative activity against human HCT116/VM46 cells after 72 hrs by MTS assay. It is filed as functional, cell-based. The settings on record: HCT-116/VM46, 72 h.
The nature of data set [1]: Stability in human serum measured up to 24 hrs. It counts as ADME, cell-free.
Data set [2] in a line: Stability in rat serum measured up to 24 hrs. It is filed as ADME, cell-free.
A short description of data set [3]: Stability in mouse serum measured up to 24 hrs. It is filed as ADME, cell-free.
Data set [4] in a line: Aqueous solubility of the compound at pH 5.5. It counts as physicochemical. Particulars: aqueous medium.

One may read the IC50 as the concentration that inhibits the measured activity by half. A low value points to greater potency. On to `O=C1c2cc3c(cc2N=C[C@@H]2CCCN12)OCCCOc1cc2c(cc1OCCCCCCCO3)C(=O)N1CCC[C@H]1C=N2`, for which the IC50 came out at 3.4 nM with OVCAR-3, 8.1 nM with NCI-H226 and 4.6 nM in the data set on NCI-N87.

Take `O=C1c2cc3c(cc2N=C[C@@H]2CCCN12)OCCCOc1cc2c(cc1OCCCCCCCCCO3)C(=O)N1CCC[C@H]1C=N2`: the IC50 in the data set on OVCAR-3 stood at 7.3 nM; in the data set with NCI-H226, 8.7 nM; with NCI-N87, 8.3 nM.

In the case of `O=C1c2cc3c(cc2N=C[C@@H]2CCCN12)OCCCOc1cc2c(cc1OCCCCCCCCCCCCO3)C(=O)N1CCC[C@H]1C=N2`, the concentration for half-maximal inhibition (IC50) stood at 136 nM with OVCAR-3, 109 nM with NCI-H226 and 306 nM with NCI-N87.

For `CN1CCN(c2ccc(C3=CN4C(=O)c5cc6c(cc5N=C[C@@H]4C3)OCCCOc3cc4c(cc3OCCCCCCCCO6)C(=O)N3C=C(c5ccc(N)cc5)C[C@H]3C=N4)cc2)CC1`, the IC50 in the data set on HCT-116 was found to be 0.016 nM; with OVCAR-3, 0.385 nM; with NCI-H226, 0.024 nM; with HCT-116/VM46 it was 0.015 nM; in the data set with NCI-N87 it was 0.486 nM.

As for `O=C(CCN1C(=O)C=CC1=O)NCCOCCOCCOCCOCCOCCOCCOCCOCCC(=O)ON1C(=O)CCC1=O`, the Stability result in data set [1], in data set [2] and in [3] was “Unstable” throughout.

For `O=C1c2cc3c(cc2N=C[C@@H]2CCCN12)OCCCOc1cc2c(cc1OCCCCCCCCCCO3)C(=O)N1CCC[C@H]1C=N2`, the results for the IC50 in the data set with OVCAR-3, in the data set with NCI-H226 and in the data set with NCI-N87 were 20 nM, 12 nM and 22 nM, respectively.

One may read the solubility as the concentration that dissolves in the medium under given conditions. Consider `COc1ccc(C2=CN3C(=O)c4cc5c(cc4N=C[C@@H]3C2)OCCCOc2cc3c(cc2OCCCCCCCCO5)C(=O)N2C=C(c4ccc(OC)cc4)C[C@H]2C=N3)cc1`, for which the IC50 in the data set on HCT-116 amounted to 0.167 nM; with OVCAR-3, 1.82 nM; with NCI-H226, 0.993 nM; with HCT-116/VM46, 1.05 nM; in the data set with NCI-N87, 0.621 nM. In addition, in [4], the solubility was < 1 µg/mL.

Consider `O=C1c2cc3c(cc2N=C[C@@H]2CCCN12)OCCCOc1cc2c(cc1OCCCCCCCCCCCO3)C(=O)N1CCC[C@H]1C=N2`, for which the IC50 in the data set on OVCAR-3 was found to be 78 nM; in the data set with NCI-H226 it was 69 nM; in the data set with NCI-N87 it was 146 nM.

For the compound `O=C1c2cc3c(cc2N=C[C@@H]2CCCN12)OCCCOc1cc2c(cc1OCCCCCCCCO3)C(=O)N1CCC[C@H]1C=N2`, the values for the IC50 in the data set on OVCAR-3, in the data set with NCI-H226 and in the data set with NCI-N87 were 1.2 nM, 1.6 nM and 2.7 nM, respectively.

As to `CN1CCN(c2ccc(C3=CN4C(=O)c5cc6c(cc5N=C[C@@H]4C3)OCCCOc3cc4c(cc3OCCCCCCCCO6)C(=O)N3C=C(c5ccc(N6CCN(C)CC6)cc5)C[C@H]3C=N4)cc2)CC1`, the half-maximal inhibitory concentration (IC50) worked out at 0.006 nM in the data set on HCT-116; 0.35 nM in the data set with OVCAR-3; 0.047 nM in the data set on NCI-H226; 0.076 nM with HCT-116/VM46; 0.034 nM in the data set with NCI-N87. Moreover, the solubility in data set [4] was > 698 µg/mL.

For `COc1cc2c(cc1OCCCOc1cc3c(cc1OC)C(=O)N1C=C(c4ccccc4)C[C@H]1C=N3)N=C[C@@H]1CC(c3ccccc3)=CN1C2=O`, the IC50 stood at 0.126 nM in the data set on OVCAR-3, 0.117 nM in the data set with NCI-H226 and 0.152 nM in the data set on NCI-N87.

Consider `COc1ccc(C2=CN3C(=O)c4cc5c(cc4N=C[C@@H]3C2)OCCCOc2cc3c(cc2OCCCCCCCCO5)C(=O)N2C=C(c4ccc(N)cc4)C[C@H]2C=N3)cc1`, for which the IC50 in the data set with HCT-116 stood at 0.063 nM; with OVCAR-3, 0.311 nM; in the data set with NCI-H226, 0.355 nM; in the data set with HCT-116/VM46, 0.36 nM; in the data set on NCI-N87, 0.559 nM.

With `O=C1c2cc3c(cc2N=C[C@@H]2CC(c4ccccc4)=CN12)OCCCOc1cc2c(cc1OCCOCCOCCO3)C(=O)N1C=C(c3ccccc3)C[C@H]1C=N2`, the IC50 in the data set on HCT-116 is 0.129 nM; in the data set on OVCAR-3, 1.7 nM; in the data set on NCI-H226, 1.07 nM; in the data set on HCT-116/VM46, 6.44 nM; with NCI-N87, 1.54 nM. Also, the solubility in data set [4] is < 1 µg/mL.

Regarding `CC1=CN2C(=O)c3cc4c(cc3N=C[C@@H]2C1)OCCCOc1cc2c(cc1OCCCCCCCCO4)C(=O)N1C=C(c3ccc(N)cc3)C[C@H]1C=N2`, the IC50 with HCT-116 came out at 0.135 nM; in the data set on OVCAR-3 it was 1.24 nM; in the data set on NCI-H226 it was 0.655 nM; in the data set with HCT-116/VM46 it was 1.22 nM; in the data set on NCI-N87 it was 1.36 nM.

As to `COc1cc2c(cc1OCCCOc1cc3c(cc1OC)C(=O)N1CCC[C@H]1C=N3)N=C[C@@H]1CCCN1C2=O` [DSB-120], the IC50 in the data set with OVCAR-3 came out at 56 nM; in the data set on NCI-H226, 70 nM; in the data set with NCI-N87, 63 nM.

For the origin of these results see ChEMBL document CHEMBL4177664, “Macrocyclic pyrrolobenzodiazepine dimers as antibody-drug conjugate payloads” (Bioorg Med Chem Lett, 2017).
